These results are taken from ChEMBL document CHEMBL6096699, “Tröger's Base as a Potential Bridge to Type-I Photosensitizers: Mechanism and Antitumor Applications” (J Med Chem, 2025).

The source made the active and inactive calls. No cut-off for these calls is given here.

Series [1] in a line: Dark toxicity in human HBE cells assessed as cell viability incubated for 24 hrs in dark by MTT assay. The format is cell-based. (In general: Formazan colour is commonly taken as a measure of viable cells.)
The nature of series [2]: Induction of type-1 ROS generation in tetrahydrofuran at 0.5 uM followed by LED white light irradiation at 1.8 mWcm/2 for 300 sec by DCFH staining based analysis. The class given is functional.
Series [3] can be described thus: Induction of type-1 ROS generation in tetrahydrofuran assessed as fold increase in DHR123 fluorescence intensity at 0.5 uM followed by LED white light irradiation at 1.8 mWcm/2 for 300 sec by DCFH staining based analysis. The format is functional.
Series [4] is described as follows: Photophysical property of the compound assessed as fluorescence quantum yield. The class given is physicochemical.
Series [5] is described as follows: Induction of type-1 ROS generation in tetrahydrofuran assessed as increase in singlet oxygen production by measuring ABDA absorption peak at 0.5 uM followed by LED white light irradiation at 1.8 mWcm/2 for 300 sec by DCFH staining based analysis. The class given is functional.
Series [6] can be described thus: Induction of type-1 ROS generation in methanol assessed as generation of O2 at 0.5 uM followed by Xe lamp irradiation for 5 mins by DCFH staining based analysis. The format is functional.
Series [7] can be described thus: Induction of type-1 ROS generation in methanol assessed as generation of OH at 0.5 uM followed by Xe lamp irradiation for 5 mins by DCFH staining based analysis. The format is functional.
Series [8] has as its system A549. Put plainly: Induction of intracellular ROS generation in human A549 cells by measuring red fluorescence at 0.4 to 1.2 uM incubated for 24 hrs under dark condition by DHE based fluorescence microscopy analysis. The format is functional, cell-based. The conditions noted are these: dose 0.4-1.2 µM.
For series [9], the system named is A549. Put plainly: Inhibition of cell migration in human A549 cells assessed as appearance of blurred cells at 0.75 uM preincubated for 12 hrs followed by incubation under dark condition and measured after 48 hrs by wound healing assay. The note with it: time 60.0 hrs. The class given is functional, cell-based.
Another series deals with HepG2. Put plainly: Phototoxicity against human HepG2 cells assessed as reduction in cell proliferation at 0.156 to 10 uM irradiated with LED light at 1.8 mWcm/2 for 2 hrs and measured after 24 hrs under normoxia condition by MTT assay. The class given is functional, cell-based. The note with it: dose 0.156-10 µM, time 26.0 hrs.
Series [10] relates to A549. Put plainly: Inhibition of cell migration in human A549 cells assessed as appearance of blurred cells at 0.75 uM preincubated for 12 hrs followed by LED light irradiation 1.8 mW cm/2 for 2 hrs and measured after 48 hrs by wound healing assay. The class given is functional, cell-based. The conditions noted are these: time 62.0 hrs.
In a further series the test system is MDA-MB-231. Nature of the series: Phototoxicity against human MDA-MB-231 cells assessed as reduction in cell proliferation at 0.156 to 10 uM irradiated with LED light at 1.8 mWcm/2 for 2 hrs and measured after 24 hrs under normoxia condition by MTT assay. The format is functional, cell-based. The note with it: dose 0.156-10 µM, time 26.0 hrs.
The subject of series [11] is A549. Put plainly: Inhibition of cell migration in human A549 cells assessed as appearance of loose cells at 0.75 uM preincubated for 12 hrs followed by LED light irradiation 1.8 mW cm/2 for 2 hrs and measured after 48 hrs by wound healing assay. The note with it: time 62.0 hrs. The format is functional, cell-based.
The subject of the next series is MCF7. Nature of the series: Phototoxicity against human MCF7 cells assessed as reduction in cell proliferation at 0.156 to 10 uM irradiated with LED light at 1.8 mWcm/2 for 2 hrs and measured after 24 hrs under normoxia condition by MTT assay. The class given is functional, cell-based. The conditions noted are these: dose 0.156-10 µM, time 26.0 hrs.
The test system of series [12] is A549. Put plainly: Phototoxicity against human A549 cells assessed as reduction in cell proliferation at 0.156 to 10 uM irradiated with LED light at 1.8 mWcm/2 for 2 hrs and measured after 24 hrs under normoxia condition by MTT assay. The class given is functional, cell-based. The note with it: dose 0.156-10 µM, time 26.0 hrs.
The subject of series [13] is A549. Put plainly: Inhibition of cell migration in human A549 cells at 0.75 uM preincubated for 12 hrs followed by incubation under dark condition and measured after 48 hrs by wound healing assay. The format is functional, cell-based. The conditions noted are these: time 60.0 hrs.
Series [14] can be described thus: Developmental toxicity in wild type AB zebrafish assessed as effect on morphological abnormalities at 1.57 to 50 uM incubated for 72 hrs under dark condition. More on the design: species or system Danio rerio. The note with it: in vivo, dose 1.57-50 µM.
The test system of series [15] is A549. Nature of the series: Induction of intracellular ROS generation in human A549 cells by measuring red fluorescence at 0.4 to 1.2 uM incubated for 24 hrs in presence of LED light irradiation at 1.8 mW cm/2 by DHE based fluorescence microscopy analysis. The class given is functional, cell-based. The note with it: dose 0.4-1.2 µM.
A short description of series [16]: Developmental toxicity in wild type AB zebrafish assessed as effect on morphological abnormalities at 1.57 to 50 uM incubated for 72 hrs followed by LED light irradiation at 1.8 mW cm/2. More on the design: species or system Danio rerio. The note with it: in vivo, dose 1.57-50 µM.
Series [17] relates to A549. Put plainly: Inhibition of cell migration in human A549 cells assessed as appearance of loose cells at 0.75 uM preincubated for 12 hrs followed by incubation under dark condition and measured after 48 hrs by wound healing assay. The class given is functional, cell-based. The conditions noted are these: time 60.0 hrs.
For series [18], the system named is A549. Nature of the series: Inhibition of cell migration in human A549 cells at 0.75 uM preincubated for 12 hrs followed by LED light irradiation 1.8 mW cm/2 for 2 hrs and measured after 48 hrs by wound healing assay. The format is functional, cell-based. The conditions noted are these: time 62.0 hrs.

As for `CCN(CC)c1ccc2cc(C(=O)/C=C/c3cc4c(cc3OC)N3Cc5cc(Br)c(OC)cc5N(C4)C3)c(=O)oc2c1`, the Activity result in series [1] was “Toxic”. Also, in series [2], the outcome was Active. Also, in [3], the fold change (FC) is 17.4. Moreover, the Fluorescence quantum yield in series [4] was 0.16. Moreover, in series [5], the outcome was inactive.

Consider `CN(C)c1ccc2cc(C(=O)/C=C/c3ccc4c(c3)CN3CN4Cc4cc(Br)ccc43)c(=O)oc2c1`, for which the result in [6], in [2] and in series [7] was Active. Further, the Activity result in series [1] is on record as “Toxic”. The fold change (FC) in series [3] was determined as 25.5. Besides, in series [4], the Fluorescence quantum yield came to 0.16.

With `CCN(CC)c1ccc2cc(C(=O)/C=C/c3ccc4c(c3)CN3CN4Cc4cc(C=O)ccc43)c(=O)oc2c1`, in the series on A549 [8], the outcome was inactive. The inhibition result in the series with A549 [9], with A549 [10], in the series on A549 [11], in the series with A549 [13], with A549 [17] and in the series on A549 [18] was “Active” throughout. Also, the result (in the series on HepG2; in the series on MDA-MB-231; in the series on MCF7; in [6]; in series [2]; in [7]) was Active. In addition, the outcome in the series with A549 [12] and in the series on A549 [15] was Active. Further, the Activity entry in series [1] is given as “Toxic”; in series [14], “Non-toxic”; in series [16], “Non-toxic”. In [3], the fold change (FC) was found to be 24.1. The Fluorescence quantum yield in [4] worked out at 0.18.
